Experimental data reported in publication PMC8465649, “Semaphorin 3A—Glycosaminoglycans Interaction as Therapeutic Target for Axonal Regeneration” (Pharmaceuticals, 2021).

Assays:
[1] = Potentiometric titration (protonation state); format: physicochemical; details: 25 °C, 0.15 M NaCl
Protocol: UV absorbance was measured using a SpectraMax M5 spectrophotometer (Molecular Devices, Sunnyvale, CA, USA). The experiments were performed with a 10 μM methylene blue (MB) solution in 5 mM Tris-HCl buffer at pH 7.5, to which increasing amounts of heparin were added to saturation of the MB dye. For the competition assays, solutions of MB and heparin at fixed concentrations were titrated with increasing amounts of SICHI or CSIC02–04 peptoids. Then, the relative increase in absorbance at 665 nm, due to release of MB from the MB–heparin complex when adding either SICHI or CSIC02–04 to the cuvette, can be plotted vs. the charge ratio considering their respective concentrations and that all the peptoids have three positive charges, and heparin has four negative charges per disaccharide unit. With this information, the charge excess for 50% of displacement of the MB dye (CE50) for each compound can be calculated for comparison. Potentiometric titrations were carried out in a reaction vessel thermostated with a water bath at 25.0 ± 0.1 °C under nitrogen atmosphere, and 0.15 M NaCl was used as the supporting electrolyte. The titrant was delivered by a precision microburette. The potentiometric measurements were made with a pH-mV meter. The reference electrode was an Ag/AgCl electrode in saturated KCl solution. The acquisition of the emf data was performed with the computer program Tiamo 2.3.1. […]

[2] = Concentration-dependent 1H NMR and DOSY NMR (aggregation); format: physicochemical; details: DOSY NMR and spectra at increasing concentrations
Text: (§1) As a simple way to characterize the GAG binding behavior, we applied the method previously described by Jiao et al., using the cationic dye known as methylene blue (MB) in a colorimetric competition assay. To compare with our previous results for SICHI, we performed similar experimental design and data analysis, using the charge excess at 50% of MB displacement (CE50) as the parameter to compare the respective binding abilities. The four peptoids rendered very similar CE50 values (CE50 = 1.5–1.8, Figure 6a), reflecting the equivalent charge states. However, CSIC02 reached saturation (complete MB displacement) with a lower number of equivalents, which can be due to its slightly larger molecular size that may cause a more efficient interference with MB binding. Next, we assessed the integrity and solubility of CSIC02 by NMR. To characterize its tendency to aggregate in aqueous solution, NMR spectra at increasing concentrations were acquired which show the same sharp signals under all conditions (Figure S13). […] Direct binding of CSIC02 to GAGs was qualitatively assessed by specific NMR experiments.
Figure S13. Concentration-dependent NMR spectra of CSIC02 and 1H DOSY NMR spectrum of 0.2 mM CSIC02 in presence of 0.5 mM caffeine. […] The spectra were processed with MNova software and the measured diffusion coefficients from DOSY […]

[3] = WaterLOGSY NMR direct binding to heparin agarose; details: 1D 1H WaterLOGSY
Protocol: Figure 6 (a) Chemical structures of triprotonated SICHI and CSIC02–04, as the main species in aqueous medium at neutral pH, and relative increase in MB absorbance at 665 nm versus charge ratio after the addition of the peptoids to the preformed MB/heparin complex (4.71 µM Hep repeating units + 9.83 µM MB in 5 mM Tris buffer at pH = 7.5). (b) 1D ^1H WaterLOGSY NMR experiments showing that CSIC02 binds to heparin agarose resin (used as a GAG mimetic).
As a simple way to characterize the GAG binding behavior, we applied the method previously described by Jiao et al., using the cationic dye known as methylene blue (MB) in a colorimetric competition assay. […] Next, we assessed the integrity and solubility of CSIC02 by NMR. […] Direct binding of CSIC02 to GAGs was qualitatively assessed by specific NMR experiments.
Next, 1D ^1H T1ρ relaxation filtered and WaterLOGSY NMR experiments were acquired at 25 °C on a 500-MHz spectrometer (Varian Inova; Agilent Technologies, Santa Clara, CA, USA) equipped with an AutoX inverse double-resonance probe with a z-shielded pulsed-field gradient coil. […] The experiments were recorded using the standard pulse sequence in the (WLOGSY_ES) Chempack library, with excitation sculpting to suppress water resonances. […]

[4] = 1D 1H NMR titration with chondroitin sulfate; format: binding; details: increasing amounts of CS, pH 7.5
Text: as §1
Figure S14. CSIC02 spectra with increasing amount of Chondroitin sulfate from shark
cartilage (0,5, 1,0. 1,5, 2,0. 2,5 and 3,0 mg). Spectra were acquired in 10 mM Tris-HCl/150
(1 picture or pasted object on this page, not shown here)

## CCN(CC)CCN(CC(=O)N(CCN1CCCC1)CC(=O)N(CCC1CCCN1C)CC(N)=O)C(=O)OCc1ccccc1 (stereo not shown) [CSIC02]
[1]
  protonation state at neutral pH: triprotonated
[2]
  tendency to aggregate in aqueous solution: absence of higher molecular weight aggregates
[3]
  binding to heparin agarose (qualitative): binding
[4]
  binding to chondroitin sulfate (qualitative): progressive shifting of CSIC02 resonances
